What was measured:
[1] = molecular target: RNA-directed RNA polymerase (Hepacivirus hominis) (UniProt O39930); assay: Inhibition of NS5B RNA dependent RNA polymerase in HCV 1b Con1 infected in human Huh5-2 cells assessed as reduction in viral RNA replication measured after 3 days by luciferase reporter gene assay; format: cell-based; conditions: Hepatitis C virus subtype 1b
[2] = Cytotoxicity against human Huh5-2 cells assessed as reduction in cell viability measured after 3 days by CellTiter 96 AQueous One Solution Cell Proliferation assay; format: cell-based, Huh-5-2

Sequence of RNA-directed RNA polymerase (Hepacivirus hominis) (O39930 1-591): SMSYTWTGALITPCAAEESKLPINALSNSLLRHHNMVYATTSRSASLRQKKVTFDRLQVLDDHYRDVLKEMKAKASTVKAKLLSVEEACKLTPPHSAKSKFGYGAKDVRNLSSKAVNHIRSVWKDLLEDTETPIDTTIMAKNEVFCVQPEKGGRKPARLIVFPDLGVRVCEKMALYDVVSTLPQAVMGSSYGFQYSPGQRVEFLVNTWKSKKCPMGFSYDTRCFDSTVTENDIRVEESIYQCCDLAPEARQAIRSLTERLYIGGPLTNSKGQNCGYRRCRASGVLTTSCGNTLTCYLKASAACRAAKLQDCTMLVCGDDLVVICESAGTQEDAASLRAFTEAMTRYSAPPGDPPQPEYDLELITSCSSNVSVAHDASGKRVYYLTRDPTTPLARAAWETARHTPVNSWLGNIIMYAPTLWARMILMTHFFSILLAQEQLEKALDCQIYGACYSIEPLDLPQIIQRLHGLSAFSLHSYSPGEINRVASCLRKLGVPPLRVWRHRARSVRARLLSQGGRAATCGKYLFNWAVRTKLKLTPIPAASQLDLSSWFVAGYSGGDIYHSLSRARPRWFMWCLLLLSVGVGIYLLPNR

| inhibition [1] | Structure (SMILES) | CC50 at 72 h [2] [µM] |
| --- | --- | --- |
| Dose-dependent effect | COC[C@H]1C[C@@](CC(C)C)(C(=O)O)N(C(=O)c2ccc(C(C)(C)C)c(OC)c2)[C@H]1CNC(C)=O | > 120 |
| Dose-dependent effect | COC[C@H]1C[C@@](CC(C)C)(C(=O)O)N(C(=O)c2ccc(C(C)(C)C)c(OC)c2)[C@H]1[C@H]1COC(=O)O1 | > 120 |
| Dose-dependent effect | COC[C@H]1C[C@@](CC(C)C)(C(=O)O)N(C(=O)c2ccc(C(C)(C)C)c(OC)c2)[C@H]1COC | > 120 |
| Dose-dependent effect | COC[C@H]1C[C@@](CC(C)C)(C(=O)O)N(C(=O)c2ccc(C(C)(C)C)c(OC)c2)[C@H]1CN=[N+]=[N-] | > 120 |
| Dose-dependent effect | COC[C@H]1C[C@@](CC(C)C)(C(=O)O)N(C(=O)c2ccc(C(C)(C)C)c(OC)c2)[C@@H]1c1nccs1 | 200 |
| Dose-dependent effect | COC[C@H]1C[C@@](CC(C)C)(C(=O)O)N(C(=O)c2ccc(C(C)(C)C)c(OC)c2)[C@H]1c1nccs1 | > 120 |
| Dose-dependent effect | COC[C@H]1C[C@@](CC(C)C)(C(=O)O)N(C(=O)c2ccc(C(C)(C)C)c(OC)c2)[C@H]1COC(=O)OC | > 120 |
| Dose-dependent effect | COC[C@H]1C[C@@](CC(C)C)(C(=O)O)N(C(=O)c2ccc(C(C)(C)C)c(OC)c2)[C@H]1CF | > 120 |
| Dose-dependent effect | COC[C@H]1C[C@@](CC(C)C)(C(=O)O)N(C(=O)c2ccc(C(C)(C)C)c(OC)c2)[C@H]1COC(C)=O | > 120 |
| Dose-dependent effect | COC[C@H]1C[C@@](CC(C)C)(C(=O)O)N(C(=O)c2ccc(C(C)(C)C)c(OC)c2)[C@H]1[C@H]1COC(C)(C)O1 | > 120 |
| Dose-dependent effect | COC[C@H]1C[C@@](CC(C)C)(C(=O)O)N(C(=O)c2ccc(C(C)(C)C)c(OC)c2)[C@H]1C(=O)OC | > 120 |
| Dose-dependent effect | COC[C@H]1C[C@@](CC(C)C)(C(=O)O)N(C(=O)c2ccc(C(C)(C)C)c(OC)c2)[C@H]1C(N)=O | > 120 |
| Dose-dependent effect | C=CCOC[C@H]1[C@@H](COC)C[C@@](CC(C)C)(C(=O)O)N1C(=O)c1ccc(C(C)(C)C)c(OC)c1 | > 120 |
| Dose-dependent effect | CC[C@H]1[C@@H](COC)C[C@@](CC(C)C)(C(=O)O)N1C(=O)c1ccc(C(C)(C)C)c(OC)c1 | 200 |
| Dose-dependent effect | CCOC(=O)c1csc([C@H]2[C@@H](COC)C[C@@](CC(C)C)(C(=O)O)N2C(=O)c2ccc(C(C)(C)C)c(OC)c2)n1 | 200 |

— ChEMBL document CHEMBL4385602, “Stereoselective synthesis and biological evaluation as inhibitors of hepatitis C virus RNA polymerase of GSK3082 analogues with structural diversity at the 5-position” (Eur J Med Chem, 2019)
